{
  "source": "patent US20170211073A1",
  "about": "“ANTISENSE ANTINEOPLASTIC AGENT” (priority 2014, published 2017)",
  "key": {"[1]": {"tested_on": "ovarian cancer cell strain SKOV3", "test": "Proliferation of SKOV3 cells", "assay_type": "cell-based"}, "[2]": {"tested_on": "pancreatic cancer cell strain SUIT-2", "test": "Radiation sensitivity enhancement, SUIT-2", "assay_type": "cell-based", "conditions": "antisense 10 nM", "procedure": "The #10 AmNA YB-1 antisense (10 nM) was introduced into cells of the pancreatic cancer cell strain SUIT-2 using the reagent Lipofectamine RNAiMax, and cell-killing effects of X-ray irradiation observed in the presence and absence of the antisense were compared."}, "YB-1 [3]": {"tested_on": "YB-1", "test": "YB-1 expression in SKOV3 by real-time RT-PCR", "assay_type": "cell-based", "conditions": "Lipofectamine RNAiMax", "from_the_text": "The #10 AmNA YB-1 antisense was introduced into cells of the ovarian cancer cell strain SKOV3 using the reagent Lipofectamine RNAiMax, and expression of YB-1 was examined by real-time RT-PCR."}, "[4]": {"tested_on": "gemcitabine-resistant human pancreatic cancer SUIT2 cells", "test": "Antitumor effect of YB-1 ASO AmNA into blood, gemcitabine-resistant SUIT2 subcutaneous tumor", "assay_type": "in vivo, nude mice", "procedure": "Antitumor effect of administration into blood of YB-1 ASO of AmNA type, of which high safety was confirmed in Example 9 compared with ASO constituted with the conventional BNA, was examined. The human large intestine cancer cells HCT116 were subcutaneously transplanted to the thighs of nude mice. After subcutaneous tumors having a diameter of 6 to 7 mm (average tumor volume, 78 vs. 72 mm^3) were formed, 200 μg/200 μL of YB-1 ASO AmNA was administered (once every two weeks, total 2 times) into the blood from the caudal veins. The diameters of the tumors were measured over time, and tumor volumes calculated in accordance with a calculation formula, (Major axis)×(Minor axis)/2, were compared with those obtained with the control antisense group. The subcutaneous tumors were collected after one week from the second administration (day 28), and weights thereof were compared. In the YB-1 ASO AmNA group, both the tumor diameter and tumor weight were suppressed to about ⅕ of those observed with the control antisense group (FIG. 10, *P<0.05).\nA human pancreatic cancer SUIT2 cell strain was prepared by culturing pancreatic cancer cells resistant to the anticancer agent, gemcitabine, for a long period of time in a medium containing gemcitabine at a low concentration (IC50 value, 100 nM for the resistant strain vs. 5 nM for the parent strain). […]"}, "YB-1 [5]": {"tested_on": "YB-1", "test": "YB-1 knockdown siRNA vs AmNA-AON, protein level (Western blotting)", "assay_type": "cell-based", "conditions": "AsPC-1, MIA PaCa-2, Suit-2, 20 nM, 48 hours", "procedure": "YB-1-siRNA or YB-1 #10AmNA was introduced (final concentration, 20 nM) into cells of the pancreatic cancer cell strains (AsPC-1, MIA PaCa-2, and Suit-2). After 48 hours, RNAs and proteins were extracted, and the YB-1 expression was evaluated by real-time RT-PCR and Western blotting at the mRNA level (A) and protein level (B), respectively. Both the knockdown efficiencies obtained with siRNA and #10 AmNA-AON were high at the mRNA level, and any clear difference was not observed between them. […] The graphs show mean±SD (n=3, *P<0.05)."}, "[6]": {"tested_on": "pancreatic cancer cell strain MIA PaCa-2", "test": "Anticancer agent sensitivity enhancement, MIA PaCa-2", "assay_type": "cell-based", "conditions": "antisense 5 nM, 5-FU, gemcitabine", "procedure": "The #10 AmNA YB-1 antisense (5 nM) was introduced into cells of the pancreatic cancer cell strain MIA PaCa-2 (FIG. 19A) and ovarian cancer cell strain SKOV-3 (FIG. 19B) using the reagent Lipofectamine RNAiMax, and cell-killing effects of the anticancer agent observed in the presence and absence of the antisense were compared. […] The anticancer agent concentrations that provided equivalent cell-killing effects are shown in blue color (5-FU) or red color (gemcitabine)."}},
  "data": [
    {"substance": "TCTcctgcaccCTGg (TCTCCTGCACCCTGG; chemistry not fully specified) [#10AmNA]", "values": [
      {"measurement": "suppression of proliferation", "setting": "[1]", "result": "suppression of proliferation"},
      {"measurement": "cell-killing effects of X-ray irradiation in presence of the antisense", "setting": "[2]", "result": "Enhancement of the cell-killing effect"},
      {"measurement": "suppression of YB-1 expression", "setting": "YB-1 [3]", "result": "Concentration-dependent suppression"},
      {"measurement": "tumor weight as fraction of control antisense group", "setting": "[4]", "result": "about ⅓"},
      {"measurement": "tumor diameter as fraction of control antisense group", "setting": "[4]; 200 μg/200 μL into blood, once every two weeks, total 2 times", "result": "about ⅓"},
      {"measurement": "knockdown efficiency at the protein level", "setting": "YB-1 [5]", "result": "clearly higher"},
      {"measurement": "cell-killing effects of the anticancer agent in presence of the antisense", "setting": "[6]", "result": "Enhancement of the cell-killing effect"}
    ]}
  ]
}
